Consider six compounds from publication PMC9027920, “Development of New Thiophene-Containing Triaryl Pyrazoline Derivatives as PI3Kγ Inhibitors” (Molecules, 2022).

One series has as its target T1, PI3Kα (Homo sapiens, UniProt P42336).
T1 construct: purchased Perkin–Elmer
As to the kind of experiment: competitive fluorescence polarization kinase activity assay, PI3Kα. The format is biochemical. The following applies: fluorescence polarization kinase kit. From the text: (§1) Initially, we directly tested the inhibition potency of the synthesized compounds on PI3K by using competitive fluorescence polarization kinase kits, as mentioned in previous investigations. […] According to the significance and research maturity of the isoforms as referenced, the PI3Kα and PI3Kγ isoforms were preliminarily included here.
(§2) The competitive fluorescence polarization kinase activity assay was used to test the inhibition potency on PI3K, as mentioned in previous investigations. In general, following the instruction of the Kit (Perkin–Elmer, Waltham, MA, USA), the 10 μL scale of PI3K activity reaction was conducted with the substrate diC8-PI(4,5)P2 in a solution containing 2.5 mM MgCl2, 5 mM HEPES, […] and 10 mM DTT at pH 7.0. Into the 10 μL reaction wells with 50 ng enzyme and […], different concentrations of the tested compounds were added, respectively. The mixture was incubated at room temperature for 3 h, and the reactions were then quenched. Afterwards, the phosphoinositide binding protein and the fluorescent dye-labeled phosphoinositide tracer were added in sequence. In the dark environment in 384-well black nonbinding plates (Corning, Corning, NY, USA), the further incubation lasted for 1 h. With appropriate filters, the polarization values of the corresponding dye were recorded to calculate the enzymatic activity of PI3K in this reacting procedure. This assay was universal for evaluating the activity of different PI3K isoforms.

In a further series the target is T2, PI3Kγ (Homo sapiens, UniProt P48736).
T2 construct: purchased Perkin–Elmer
T2 sequence (P48736 whole entry, species assumed): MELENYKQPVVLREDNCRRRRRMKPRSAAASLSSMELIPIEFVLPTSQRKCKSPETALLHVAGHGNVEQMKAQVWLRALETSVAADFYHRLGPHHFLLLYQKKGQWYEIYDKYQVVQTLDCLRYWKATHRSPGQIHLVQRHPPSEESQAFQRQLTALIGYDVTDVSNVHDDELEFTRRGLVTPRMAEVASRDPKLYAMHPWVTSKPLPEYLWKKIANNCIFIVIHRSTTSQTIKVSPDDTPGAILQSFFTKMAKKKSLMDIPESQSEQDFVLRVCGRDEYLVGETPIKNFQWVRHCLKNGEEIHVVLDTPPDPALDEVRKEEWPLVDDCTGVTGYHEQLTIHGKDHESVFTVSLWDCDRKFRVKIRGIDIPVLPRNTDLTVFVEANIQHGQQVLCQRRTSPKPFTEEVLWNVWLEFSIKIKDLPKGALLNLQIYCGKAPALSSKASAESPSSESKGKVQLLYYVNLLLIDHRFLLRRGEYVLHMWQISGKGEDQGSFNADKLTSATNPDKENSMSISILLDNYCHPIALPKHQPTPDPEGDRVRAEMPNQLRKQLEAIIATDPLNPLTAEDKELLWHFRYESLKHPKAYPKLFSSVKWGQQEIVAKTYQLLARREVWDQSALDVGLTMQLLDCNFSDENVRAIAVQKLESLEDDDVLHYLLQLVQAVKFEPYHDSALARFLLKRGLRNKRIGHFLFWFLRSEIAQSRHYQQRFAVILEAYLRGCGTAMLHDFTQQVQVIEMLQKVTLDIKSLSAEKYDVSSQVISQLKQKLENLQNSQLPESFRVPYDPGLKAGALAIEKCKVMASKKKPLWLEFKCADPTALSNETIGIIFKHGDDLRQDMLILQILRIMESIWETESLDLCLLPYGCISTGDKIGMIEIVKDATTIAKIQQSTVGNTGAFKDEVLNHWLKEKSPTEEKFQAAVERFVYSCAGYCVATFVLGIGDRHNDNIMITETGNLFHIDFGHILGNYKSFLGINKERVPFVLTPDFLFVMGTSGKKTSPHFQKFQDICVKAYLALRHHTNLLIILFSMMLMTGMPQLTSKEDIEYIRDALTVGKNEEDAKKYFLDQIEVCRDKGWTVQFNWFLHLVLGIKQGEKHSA
As to the kind of experiment: competitive fluorescence polarization kinase activity assay, PI3Kγ. The format is biochemical. The following applies: for IC50: fluorescence polarization kinase kit.
Description: as §1, §2
(In general: Polarisation of emitted light reports the rotation of a fluorescent probe.)

Series [1] can be described thus: cytotoxicity, MTT, L02 cells. It is filed as cell-based. Particulars: human, L02 cells (human normal hepatocyte line). On the procedure:
(§3) In this section, the anti-proliferation activity of the synthesized compounds 3a–3t was evaluated. Herein, HeLa (human epithelial cervical cancer cell line), HepG2 (human hepatoellular carcinoma cell line) and L02 (human normal hepatocyte line) cells were used. According to the affection on L02 cells, most of the tested compounds were low-toxic. […] Basically, many of the compounds in this series could inhibit the growth of HeLa and HepG2 cells effectively. The anti-proliferation inhibitory activity and the enzymatic inhibition potency indicated the consistent tendencies; the SAR of the observed anti-proliferation activity was also similar to that of the enzymatic inhibition, especially that of PI3Kγ inhibition; thus, the cellular inhibition might be caused by the effect on PI3K. […] Thus, HepG2 cells were selected to conduct further investigations at the protein level.
(§4) In this section, the cells included HeLa (human epithelial cervical cancer cell line), HepG2 (human hepatocellular cancer cell line) and L02 (human normal hepatocyte line) to evaluate the anti-proliferation activity of the synthesized compounds. The cells were cultured in Dulbecco’s modified eagle medium (DMEM, Hyclone) with the addition of 10% fetal bovine serum (FBS, BI), 2 mmol/L L-glutamine, 100 units/mL penicillin-streptomycin (Sigma-Aldrich, Saint Louis, MO, USA), […] (Hyclone, Logan, UT, USA). The environment was 5% CO2 contained atmosphere at 37 °C. The tests of anti-proliferative activity were conducted under a standard method with the typical dye 3-(4,5-dimethylthiazol-2-yl)-2,5-diphenyltetrazolium bromide (MTT) in triplicate. The LX300 Epson Diagnostic micro-plate reader (Nagano, Japan) was used to record the absorbance at 570 nm (OD570).

In series [2] the test system is HeLa (human epithelial cervical cancer cell line) cells. Put plainly: anti-proliferation assay, MTT, HeLa cells. The format is cell-based. Here is the method:
as §3, §4

Series [3] relates to HepG2 (human hepatocellular cancer cell line) cells. As to the kind of experiment: anti-proliferation assay, MTT, HepG2 cells. The format is cell-based. The following applies: read-out: GI50 HepG2γ. On the procedure:
as §3, §4

Series [4] relates to PI3K-mediated Akt phosphorylation in HepG2 cells. Put plainly: Western blot of Akt and p-Akt in HepG2 cells. The format is cell-based, human. Particulars: 24 h, 0, 0.25, 0.50, 1.00 μM, with increasing concentration. On the procedure: For the evaluation of PI3Kγ activity, the downstream signal of PI3Kγ should be checked. Commonly, in the PI3K-Akt-mTOR pathway, the activation of PI3K mediated the phosphorylation of Akt and then triggered the following biological events. Herein, Western blot was conducted to visualize the expression levels of Akt and p-Akt (phosphorylated Akt) in HepG2 cells after incubation with various concentrations of the top hit 3s (Figure 2). GAPDH was used as the internal reference to guarantee cell status. […] This meant that compound 3s has the potential to cause dose-dependent blocking on the PI3K-mediated Akt phosphorylation.
According to the results of the anti-proliferation assay, HepG2 cells were chosen to be incubated with the compound 3s for 24 h. The cells were then trypsinized and collected. Afterwards, the extracting of the total proteins was conducted with a 1 × RIPA lysis buffer (1% NP-40, 50 mM Tris-HCl, 150 mM NaCl, 0.25% deoxycholic acid, 1 mM EDTA containing protease inhibitors PMSF, pH 7.4,) (Amresco, Solon, OH, USA). […]
Figure 2 (A) The expression levels of Akt, phosphorylated Akt (p-Akt) and GAPDH in HepG2 cells incubated with various concentrations of compound 3s (0, 0.25, 0.50, 1.00 μM); (B) Quantitation analysis of the p-Akt level. Data were expressed as Mean ± SD (n = 3). * p < 0.05, ** p < 0.01 and *** p < 0.005 vs. the control.
For orientation: A western blot detects proteins with antibodies after separation by electrophoresis.

A further series concerns HCT-116 cells. Also noted: method as in doi:10.1134/S1068162020030061. The following applies: cited from earlier work.
The subject of another series is CACO-2 cells. Also noted: method as in doi:10.1134/S1068162020030061. The following applies: cited from earlier work.
Another series concerns BHK cells. Set-up: method as in doi:10.1134/S1068162020030061. The following applies: cited from earlier work.

T1 sequence (P42336 whole entry, species assumed): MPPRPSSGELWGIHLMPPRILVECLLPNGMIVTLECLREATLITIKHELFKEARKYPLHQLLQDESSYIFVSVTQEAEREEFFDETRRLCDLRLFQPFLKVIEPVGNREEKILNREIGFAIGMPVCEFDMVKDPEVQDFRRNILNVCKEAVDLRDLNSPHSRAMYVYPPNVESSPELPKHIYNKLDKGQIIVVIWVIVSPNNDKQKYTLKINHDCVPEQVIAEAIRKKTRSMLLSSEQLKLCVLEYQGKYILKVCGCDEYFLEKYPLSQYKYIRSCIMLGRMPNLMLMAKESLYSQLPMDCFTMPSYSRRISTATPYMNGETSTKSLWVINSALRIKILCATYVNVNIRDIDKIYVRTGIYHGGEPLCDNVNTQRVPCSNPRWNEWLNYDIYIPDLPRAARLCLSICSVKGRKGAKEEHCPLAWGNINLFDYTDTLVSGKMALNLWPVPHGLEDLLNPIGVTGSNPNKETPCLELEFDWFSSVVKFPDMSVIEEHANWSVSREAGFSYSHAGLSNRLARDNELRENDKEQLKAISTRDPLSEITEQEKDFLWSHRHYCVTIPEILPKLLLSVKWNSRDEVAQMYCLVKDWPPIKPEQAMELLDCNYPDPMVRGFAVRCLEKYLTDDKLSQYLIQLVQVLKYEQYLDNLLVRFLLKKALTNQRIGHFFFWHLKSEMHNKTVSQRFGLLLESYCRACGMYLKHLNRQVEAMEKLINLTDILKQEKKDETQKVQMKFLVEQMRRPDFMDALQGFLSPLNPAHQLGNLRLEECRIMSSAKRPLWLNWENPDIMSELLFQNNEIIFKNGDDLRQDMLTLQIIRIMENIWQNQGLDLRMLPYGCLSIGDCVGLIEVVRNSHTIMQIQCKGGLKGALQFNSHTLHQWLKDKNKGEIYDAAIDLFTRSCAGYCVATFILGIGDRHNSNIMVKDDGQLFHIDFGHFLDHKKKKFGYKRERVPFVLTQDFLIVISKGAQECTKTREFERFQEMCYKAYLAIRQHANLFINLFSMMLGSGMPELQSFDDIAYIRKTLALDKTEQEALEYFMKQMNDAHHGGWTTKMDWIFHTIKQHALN
T1 sequence (P27986 whole entry partner, species assumed): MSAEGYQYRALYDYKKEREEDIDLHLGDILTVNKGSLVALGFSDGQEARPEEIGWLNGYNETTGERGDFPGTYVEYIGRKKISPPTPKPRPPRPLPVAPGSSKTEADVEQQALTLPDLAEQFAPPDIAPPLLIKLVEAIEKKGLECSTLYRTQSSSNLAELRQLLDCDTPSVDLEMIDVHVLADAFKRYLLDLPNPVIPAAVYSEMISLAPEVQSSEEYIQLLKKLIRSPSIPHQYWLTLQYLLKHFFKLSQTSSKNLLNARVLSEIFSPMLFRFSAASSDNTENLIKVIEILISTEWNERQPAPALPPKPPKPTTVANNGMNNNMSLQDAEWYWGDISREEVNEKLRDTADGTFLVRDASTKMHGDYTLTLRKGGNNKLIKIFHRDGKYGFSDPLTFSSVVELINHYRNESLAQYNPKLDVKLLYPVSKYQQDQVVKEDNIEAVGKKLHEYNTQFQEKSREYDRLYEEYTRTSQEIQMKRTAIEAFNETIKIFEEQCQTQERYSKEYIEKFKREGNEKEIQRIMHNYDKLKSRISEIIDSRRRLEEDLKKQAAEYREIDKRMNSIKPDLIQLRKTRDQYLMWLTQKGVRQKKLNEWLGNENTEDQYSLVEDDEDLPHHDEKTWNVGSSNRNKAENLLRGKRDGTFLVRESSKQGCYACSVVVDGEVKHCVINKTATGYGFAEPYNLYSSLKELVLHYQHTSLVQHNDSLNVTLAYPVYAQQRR

A word on the IC50: it is the midpoint of a concentration-inhibition curve. Higher therefore signals a need for much substance. Usually CC50 stands for the concentration at which the toxic effect on the cells reaches its halfway point. Read a low CC50 as harm at low concentration. One may read the GI50 as the concentration at which growth is held to half of that of the control. Usually melting point stands for the temperature, or range, at which the solid turns liquid. `COc1ccc(C(=O)N2N=C(c3ccc4c(c3)OCO4)CC2c2cccs2)cc1OC` (stereo not drawn) [3s, (3-(Benzo[d][1,3]dioxol-5-yl)-5-(thiophen-2-yl)-4,5-dihydro-1H-pyrazol-1-yl)(3,4-dimethoxyphenyl)methanone] displayed a melting point of 138 to 140 °C. The compound also showed an IC50 on PI3Kα of 42.6 ± 2.9 µM. On PI3Kγ, the half-inhibitory concentration (IC50) came out at 0.066 ± 0.005 µM. At PI3Kγ (ratio of the IC50 values for PI3Kα and PI3Kγ), the selectivity index came to 645. Moreover, half-maximal cytotoxicity in [1] (CC50) was put at 181 ± 9 µM. Also, halving of growth in series [2] (GI50) required 13.7 ± 1.1 µM. Besides, the 50% growth inhibitory concentration (GI50) in series [3] was determined as 12.9 ± 1.3 µM. Also, in series [4], the Akt level entry is “almost remained unchanged” and the p-Akt level result was “obvious decrease”.

In the case of `CCOC(=O)c1sc(N2N=C(c3cccs3)CC2c2ccccc2)nc1C` (stereo not drawn) [ethyl-4-methyl-2-(5-phenyl-3-(thiophen-2-yl)-4,5-dihydropyrazol-1-yl)thiazole-5-carboxylate], the anti-tumor activity result in the series with HCT-116 cells and in the series on CACO-2 cells was “potent anti-tumor activity” each time. In addition, in the series with BHK cells, the cytotoxicity entry is “no cytotoxicity”.

Compound `COc1ccc(C(=O)N2N=C(c3cccc(Br)c3)CC2c2cccs2)cc1OC` (stereo not drawn) [3d, (3-(3-Bromophenyl)-5-(thiophen-2-yl)-4,5-dihydro-1H-pyrazol-1-yl)(3,4-dimethoxyphenyl)methanone] showed a melting point of 124 to 126 °C. The compound further came in with a concentration for half-maximal inhibition (IC50) on PI3Kα of 78.7 ± 4 µM. The same compound yielded an IC50 on PI3Kγ of 2.22 ± 0.072 µM. Moreover, the half-maximal cytotoxic concentration (CC50) in [1] is 120 ± 4.7 µM. Further, in series [2], halving of growth (GI50) required 57.1 ± 2.6 µM. Further, the concentration for 50% growth inhibition (GI50) in [3] worked out at 42.6 ± 1.9 µM.

`COc1ccc(C(=O)N2N=C(c3ccc(-c4ccc(Br)cc4)cc3)CC2c2cccs2)cc1OC` (stereo not drawn) [3k, (3-(4’-Bromo-[1,1’-biphenyl]-4-yl)-5-(thiophen-2-yl)-4,5-dihydro-1H-pyrazol-1-yl)(3,4-dimethoxyphenyl)methanone] yielded a melting point of 75 to 77 °C. The IC50 at PI3Kα amounted to 1.1 ± 0.061 µM. For the same compound, the concentration for half-maximal inhibition (IC50) on PI3Kγ came to 42.7 ± 2.6 µM. The compound also had a CC50 in series [1] of 178 ± 8.7 µM. This compound also came in with a GI50 in [2] of 44.6 ± 2.1 µM. For the same compound, the concentration for 50% growth inhibition (GI50) in series [3] is 46.6 ± 1.3 µM.

For the compound `COc1ccc2cc(C3=NN(C(=O)c4ccc(OC)c(OC)c4)C(c4cccs4)C3)ccc2c1` (stereo not drawn) [3p, (3-(6-((λ1-Oxidanyl)-λ^5-methyl)naphthalen-2-yl)-5-(thiophen-2-yl)-4,5-dihydro-1H-pyrazol-1-yl)(3,4-dimethoxyphenyl)methanone], the melting point was 74 to 76 °C. At PI3Kα, the IC50 came out at 0.56 ± 0.045 µM. The IC50 on PI3Kγ came out at 3.76 ± 0.19 µM. Half-maximal cytotoxicity in series [1] (CC50) was put at 67.1 ± 3.9 µM. For the same compound, the GI50 in series [2] amounted to 6.81 ± 0.24 µM. Also, the concentration for 50% growth inhibition (GI50) in series [3] was determined as 6.31 ± 0.54 µM.

In turn, `COc1ccc(C(=O)N2N=C(c3ccccc3)CC2c2cccs2)cc1OC` (stereo not drawn) [3a, (3,4-Dimethoxyphenyl)(3-phenyl-5-(thiophen-2-yl)-4,5-dihydro-1H-pyrazol-1-yl)methanone] gave a melting point of 141 to 143 °C. The concentration for half-maximal inhibition (IC50) on PI3Kα is over 100 µM. The half-maximal inhibitory concentration (IC50) on PI3Kγ was 7.48 ± 0.22 µM. In [1], this compound returned a CC50 of 174 ± 10 µM. This compound also gave a GI50 in [2] of 109 ± 5.8 µM. Also, the GI50 in series [3] is 61.1 ± 3.2 µM.
